Test [1] deals with T1, δ-opiate receptor (Rattus norvegicus, UniProt P33533).
T1 construct: performed in brain membrane homogenates; from tissue; host or cells: rat brain without cerebellum, pons and medulla oblongata, male Wistar rats (membrane homogenate)
The experiment in a line: δ-opiate receptor bonding test ((3H)-2-D-ala-deltorphin II displacement). In kind it is binding, rat (male Wistar). Conditions: rat brain membrane homogenate, 1 nmol/l (3H)-2-D-ala-deltorphin II, 90 min at 37° C., pH 7.4; mean ± standard deviation of 3 independent trials. On the procedure: Tests on determining the affinity of compounds of the formula I according to the invention for the δ-opiate receptor were performed in brain membrane homogenates (homogenate from rat brain without the cerebellum, pons and medulla oblongata from male Wistar rats). In this case, freshly prepared rat brain was homogenised each time, cooled by ice, in 50 mmol/l of tris-HCl (tris-(hydroxymethyl)-aminomethane hydrochloride) (pH 7.4) and centrifuged for 10 min at 5,000 g and 4° C. After decanting and discarding the supernatant liquid, the membrane sediment was again taken up in 50 mmol/l of tris-HCl (pH 7.4) and homogenised and the homogenate was then centrifuged for 20 min at 20,000 g and 4° C. This wash stage was repeated once more. Then the supernatant liquid was decanted and the membrane sediment was homogenised in cold 50 mmol/l tris-HCl, 20% glycerol (w:v), 0.01% bacitracin (w/v) (pH 7.4) and frozen in portions until tested. For the receptor bonding tests, the portions were thawed out and diluted 1:10 with the bonding test buffer. A 50 mmol/l tris-HCl, 5 mmol/l MgCl2 (pH 7.4) supplemented with 0.1% (w:v) of bovine serum albumin was used as buffer, and 1 nmol/l of (^3 H)-2-D-ala-deltorphin II was used as a radioactive ligand in the bonding test. The proportion of non-specific bonding was determined in the presence of […] of naloxon. In further batches, the compounds according to the invention were added in a number of concentrations and the displacement of the radioactive ligand from its specific bond was determined. Three identical batches were incubated for 90 min at 37° C. and then harvested in order to determine the radioactive ligand bonded to the membrane homogenate by means of filtration through a glass fibre filter (GF/B). The radioactivity of the glass fibre filter discs was measured in a beta-counter by adding a scintillator. The affinity of compounds according to the invention for the δ-opiate receptor was calculated as IC50 in accordance with the law of mass action using non-linear regression. The K values in table 1 are given as the average value plus or minus the standard deviation of 3 quite independent trials.

For test [2], the system named is phenylquinone-induced writhing in mice. As to the kind of experiment: Anti-nociceptive activity in phenylquinone-induced writhing test in mice. Format: in vivo, mouse (male NMRI). As to conditions: Mus musculus, iv, 10 min; i.v., phenylquinone i.p. 10 min after compound, writhing counted 5-20 min after phenylquinone; 10 animals per dose; 95% confidence range in parentheses. As to the method: The anti-nociceptive effectiveness was tested in phenylquinone-induced writhing in mice, modified by I. C.Hendershot, J. Forsaith, J. Pharmacol. Exp. Ther. 125, 237-240 (1959). Here, male NMRI mice with a weight of 25-30 g were used. 10 min after intravenous administration of a compound according to the invention, 0.3 ml/mouse of a 0.02% strength aqueous solution of phenylquinone was administered intraperitoneally to groups of 10 animals per substance dose (phenylbenzoquinone, Sigma, Deisenhofen; solution prepared by adding 5% ethanol and storing in a water bath at 45° C.). The animals were placed individually in observation cages. Using a push button counter,the number of pain-induced stretching movements (so-called writhing reactions=straightening the body while stretching out the back extremities) was counted 5-20 min after administration of the phenylquinone. From the dose-dependent decrease in writhing reactions as compared with groups of animals tested in parallel to which no compounds according to the invention had been administered, the ED50 values for the writhing reaction were calculated using regression analysis (evaluation programme Martens EDV service, Eckental).
On the technique in general: In writhing tests, fewer writhes than in controls are read as antinociception.

Drawing on US6323369A, “Substituted cycloheptenes, their preparation and use” (Gruenenthal GmbH, priority 1998, dated 2001), this text covers Ki and ED50 for 18 compounds.

Each structure is given as a SMILES string. Where a name gives a salt, the structure may show the parent alone.

T1 sequence (P33533 whole entry): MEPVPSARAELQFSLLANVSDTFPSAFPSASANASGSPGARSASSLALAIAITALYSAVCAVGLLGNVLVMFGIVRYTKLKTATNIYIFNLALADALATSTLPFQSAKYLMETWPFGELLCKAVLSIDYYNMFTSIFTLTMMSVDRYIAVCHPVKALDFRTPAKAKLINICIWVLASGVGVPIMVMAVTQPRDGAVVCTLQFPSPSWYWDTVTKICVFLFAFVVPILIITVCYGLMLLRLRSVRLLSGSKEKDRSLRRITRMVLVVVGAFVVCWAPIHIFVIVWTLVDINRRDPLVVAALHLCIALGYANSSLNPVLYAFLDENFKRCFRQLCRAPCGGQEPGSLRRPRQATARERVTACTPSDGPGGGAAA

Turning to `CN(C)CC1=C(c2cccc(O)c2)CC(c2cccc(O)c2)CCC1.Cl` (stereo not drawn) [Example 1, 3-[2-dimethylaminomethyl-6-(3-hydroxyphenyl)-cyclohept-1-enyl]-phenol hydrochloride], the inhibition constant (Ki) in test [1] came to 1.4 ± 0.8 nM. For the same compound, the ED50 in test [2] was 3.31 mg/kg.

Compound `CN(C)CC1=C(c2cccc(O)c2)CC(c2ccc(Cl)cc2)CCC1.Cl` (stereo not drawn) [Example 2a, 3-[6-(4-chlorophenyl)-2-dimethylaminomethyl-cyclohept-1-enyl]-phenol hydrochloride] returned a Ki in test [1] of 30.3 ± 4.7 nM. The ED50 in test [2] was 7.4 mg/kg.

For `CN(C)CC1=C(c2cccc(O)c2)CC(c2ccccc2)CCC1.Cl` (stereo not drawn) [Example 2b, 3-(2-dimethylaminomethyl-6-phenyl-cyclohept-1-enyl)-phenol hydrochloride], the Ki in test [1] was determined as 3.8 ± 0.2 nM. Moreover, the ED50 in test [2] stood at 4.48 mg/kg.

As for `CN(C)CC1=C(c2cccc(O)c2)CC(c2cccc3ccccc23)CCC1.Cl` (stereo not drawn) [Example 2c, 3-(2-dimethylaminomethyl-6-naphth-1-yl-cyclohept-1-enyl)-phenol hydrochloride], in test [1], the affinity corresponds to a Ki of 24.7 ± 2.4 nM. Further, the median effective dose (ED50) in test [2] was 5.29 mg/kg.

In test [1], `CN(C)CC1=C(c2cccc(O)c2)CC(c2ccc3ccccc3c2)CCC1.Cl` (stereo not drawn) [Example 2d, 3-(2-dimethylaminomethyl-6-naphth-2-yl-cyclohept-1-enyl]-phenol hydrochloride] came in with a Ki of 31.5 ± 5.9 nM. Further, the 50% effective dose (ED50) in test [2] is 7.56 mg/kg.

The compound `CN(C)CC1=C(c2cccc(O)c2)CC(c2ccc(O)cc2)CCC1.Cl` (stereo not drawn) [Example 2e, 3-[2-dimethylaminomethyl-6-(4-hydroxyphenyl)-cyclohept-1-enyl]-phenol hydrochloride] returned a Ki in test [1] of 15.2 ± 4.3 nM. For the same compound, in test [2], the ED50 amounted to 2.25 mg/kg.

As to `Cc1cccc(C2CCCC(CN(C)C)=C(c3cccc(O)c3)C2)c1` (stereo not drawn) [Example 2f, 3-(2-dimethylaminomethyl-6-m-toluyl-cyclohept-1-enyl]-phenol hydrochloride], the Ki in test [1] came out at 3.2 ± 0.8 nM.

Consider `CN(C)CC1=C(c2cccc(O)c2)CC(c2cccc(C(C)(C)C)c2)CCC1` (stereo not drawn) [Example 2g, 3-[6-(3-tert-butyl-phenyl)-2-dimethylaminomethyl-cyclohept-1-enyl]-phenol hydrochloride], for which the affinity in test [1] corresponds to a Ki of 17.5 ± 5.2 nM.

In the case of `CN(C)CC1=C(c2cccc(O)c2)CC(c2ccc3cc(O)ccc3c2)CCC1` (stereo not drawn) [Example 2h, hydrochloride], the Ki in test [1] was found to be 19.4 ± 4.7 nM. Further, the ED50 in test [2] is 6.22 mg/kg.

In turn, `CN(C)CC1=C(c2cccc(O)c2)CC(c2ccc(O)c(F)c2)CCC1.Cl` (stereo not drawn) [Example 2i, 3-[2-dimethylaminomethyl-6-(3-fluoro-4-hydroxyphenyl)-cyclohept-1-enyl]-phenol hydrochloride] showed a Ki in test [1] of 14.6 ± 2.2 nM. In test [2], the median effective dose (ED50) was determined as 0.89 mg/kg.

In the case of `CN(C)CC1=C(c2cccc(O)c2)CC(c2ccccc2O)CCC1` (stereo not drawn) [Example 2j, 3-[2-dimethylaminomethyl-6-(2-hydroxyphenyl)-cyclohept-1-enyl]-phenol hydrochloride], the Ki in test [1] came out at 24.7 ± 3.1 nM.

Consider `CN(C)CC1=C(c2cccc(O)c2)CC(C2CCCCC2)CCC1` (stereo not drawn) [Example 2k, 3-(6-cyclohexyl-2-dimethylaminomethyl-cyclohept-1-enyl)-phenol hydrochloride], for which the Ki in test [1] stood at 10.3 ± 2.2 nM.

The compound `CN(C)CC1=C(c2cccc(O)c2)CC(CC2CCCCC2)CCC1` (stereo not drawn) [Example 2l, 3-(6-cyclohexylmethyl-2-dimethylaminomethyl-cyclohept-1-enyl)-phenol hydrochloride] yielded a Ki in test [1] of 28.6 ± 5.8 nM.

Consider `CN(C)CC1=C(c2cccc(O)c2)CC(Cc2ccccc2)CCC1` (stereo not drawn) [Example 2m, 3-(6-benzyl-2-dimethylaminomethyl-cyclohept-1-enyl)-phenol hydrochloride], for which the Ki in test [1] stood at 10.2 ± 1 nM.

The compound `CN(C)CC1=C(c2cccc(O)c2)CC(Cc2cccc(O)c2)CCC1` (stereo not drawn) [Example 2n, 3-[2-dimethylaminomethyl)-6-(3-hydroxybenzyl)-cyclohept-1-enyl]-phenol hydrochloride] yielded a Ki in test [1] of 7.4 ± 2.2 nM.

The compound `CN(C)CC1=C(c2cccc(O)c2)CC(CCc2ccccc2)CCC1` (stereo not drawn) [Example 2o, 3-(2-dimethylaminomethyl-6-phenethyl-cyclohept-1-enyl)-phenol hydrochloride] registered a Ki in test [1] of 30.6 ± 10.5 nM.

Turning to `Cc1cc(C2CCCC(CN(C)C)=C(c3cccc(O)c3)C2)cc(C)c1O` (stereo not drawn) [Example 2p, 3-[2-dimethylaminomethyl)-6-(3,5-dimethyl-4-hydroxyphenyl)-cyclohept-1-enyl]-phenol hydrochloride], the inhibition constant (Ki) in test [1] worked out at 2.5 nM.

On to `CN(CCc1ccccc1)CC1=C(c2cccc(O)c2)CC(c2ccccc2)CCC1.Cl` (stereo not drawn) [Example 3, 3-{2-[(methylphenethylamino)-methyl]-6-phenyl-cyclohept-1-enyl}-phenol hydrochloride], for which the Ki in test [1] was 8.3 ± 3.3 nM. Moreover, the ED50 in test [2] worked out at 3.4 mg/kg.

Broadly, the Ki is the equilibrium dissociation constant of an inhibitor or competing ligand from its target. A lower Ki goes with tighter binding. In general, ED50 refers to the dose at which the effect has come halfway, by size or by number of responders.
